# Biological target: T1, human GPR84 receptor (Homo sapiens, UniProt Q9NQS5)
# T1 construct: frozen aliquots prepared by acCELLerate; host or cells: CHO-K1
# Assay: cAMP HTRF assay for identification of cellular GPR84 antagonists
# Format: cell-based
# Settings: CHO-K1 cells stably expressing human GPR84; Forskolin plus agonist 6-OAU; cAMP HTRF readout; average or median values
# Description: cAMP HTRF® Assay for Identification of Cellular GPR84 Antagonists
# By using a Homogenous Time-Resolved Fluorescence (HTRF®) based assay (#62AM5PEJ, Cisbio, Condolet, France) the inhibition of the Gi-coupled GPR84 receptor can be detected. CHO-K1 cells stably expressing human GPR84 receptor (purchased from DiscoveRx, now Eurofins) were used and treated with Forskolin (F6886, Sigma, Germany) to stimulate membrane adenylyl cyclases and thereby unspecific cAMP formation. Activation of the Gi-coupled GPR84 by a natural or small molecule agonist (e.g. 6-n-octyl aminouracile, inhouse) results in inhibition of cellular cAMP formation which can be released again by antagonists to this receptor. Detection and quantification of cellular cAMP levels in this HTRF assay is achieved by interaction between a fluorescent cAMP tracer (cAMP-d2) and an Eu-cryptate labelled anti-cAMP antibody. Following excitation at 337 nm this pairing allows for the generation of a fluorescence resonance energy transfer (FRET) between the partners and results in FRET induced emissions at 665 nm and 620 nm, the latter representing background signal by Eu-cryptate labelled anti-cAMP antibody. Maximal signal is obtained in the absence of any cellular cAMP (no competition for the binding of the tracer to the antibody). Given the combination of the Gi coupling properties of GPR84 and the competitive nature of the detection system agonist treatment should result in an increase in the HTRF signal due to lowered cAMP levels. Any signal decrease in the presence of Forskolin, agonist and compound is indicative of antagonist mediated abrogation of GPR84 signalling.
# For the assay, frozen aliquots of CHO-K1 cells expressing hGPR84 (prepared by acCELLerate, Hamburg, Germany) were thawed and a cell suspension (1.67E+06 cells/mL) in assay media (Ham's F12 Nutrient Mix, Thermo Fisher Scientific, Waltham, USA; 5% fetal calf serum, Biomol, Hamburg, Germany) containing cAMP-d2 (dilution 1:20, supplied with the kit #62AM5PEJ, Cisbio, Condolet, France) was prepared. After recovery of cells for 20 minutes at 37° C., 3 μL/well cell suspension including cAMP-d2 were added to a pre-dispensed assay plate (Greiner Bio-One, Kremsmuenster, Austria) containing 50 nl/well test compound in 100% DMSO or 100% DMSO as control. This was followed by a 30 minutes incubation step at room temperature. […] The reaction was stopped by addition of 3 μL/well lysis buffer containing cAMP Eu-Cryptate antibody (dilution 1:20) (both supplied with the kit #62AM5PEJ, Cisbio, Condolet, France). To enable complete lysis, plates were incubated for 60 minutes at room temperature before measurement in an HTRF reader, e.g. a PHERAstar (BMG Labtech, Ortenberg, Germany).
# From the fluorescence emissions at 665 nm (FRET) and at 620 nm (background signal of Eu-cryptate) the ratio (emission at 665 nm divided by emission at 620 nm×10000) was calculated and the data were normalized (reaction without test compound, only 100% DMSO=0% inhibition; all other assay components except agonist=100% inhibition). For dose response testing on the same microtiter plate, compounds were tested at 11 different concentrations in the range of 20 μM to 0.07 nM (20 μM, 5.7 μM, 1.6 μM, 0.47 μM, 0.13 μM, 38 nM, 11 nM, 3.1 nM, 0.89 nM, 0.25 and 0.07 nM; dilution series prepared before the assay at the level of the 100-fold conc. stock solutions by serial 1:3.5 dilutions in 100% DMSO) in duplicate values for each concentration. IC50 values were calculated by 4-parameter fitting using a commercial software package (Genedata Screener, Basel, Switzerland).
# Examples were tested in selected biological assays one or more times. […]
# T1 sequence (Q9NQS5 whole entry): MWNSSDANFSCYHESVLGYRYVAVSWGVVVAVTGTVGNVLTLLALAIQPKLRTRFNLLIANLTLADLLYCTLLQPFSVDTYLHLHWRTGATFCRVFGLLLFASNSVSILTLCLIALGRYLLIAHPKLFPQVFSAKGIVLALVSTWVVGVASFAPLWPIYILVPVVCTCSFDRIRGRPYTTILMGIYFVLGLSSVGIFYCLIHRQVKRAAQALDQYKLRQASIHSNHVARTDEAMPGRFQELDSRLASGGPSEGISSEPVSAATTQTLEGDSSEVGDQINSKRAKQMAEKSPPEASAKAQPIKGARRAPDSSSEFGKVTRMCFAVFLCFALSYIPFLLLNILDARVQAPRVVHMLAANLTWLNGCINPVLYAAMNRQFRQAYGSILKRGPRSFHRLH
row,SMILES,IC50 [nM]
1,O=C(NCc1cnccn1)c1oc2ccc3cn(C[C@H]4COCCO4)nc3c2c1C(F)(F)F [Example 15],49
2,"Cc1ccnc(CNC(=O)c2oc3ccc4cn(C[C@H]5COCCO5)nc4c3c2C(F)(F)F)c1 [Example 19, 2-{[(2S)-1,4-dioxan-2-yl]methyl}-N-[(4-methylpyridin-2-yl)methyl]-8-(trifluoromethyl)-2H-furo[2,3-g]indazole-7-carboxamide]",53
3,"Cc1ccc(Cn2cc3ccc4oc(C(=O)NC[C@@H]5COCCO5)c(C(F)(F)F)c4c3n2)cn1 [Example 3, N-{[(2R)-1,4-dioxan-2-yl]methyl}-2-[(6-methylpyridin-3-yl)methyl]-8-(trifluoromethyl)-2H-furo[2,3-g]indazole-7-carboxamide]",7
4,O=C(NCC1CC(F)(F)CO1)c1oc2ccc3cn(C[C@H]4COCCO4)nc3c2c1C(F)(F)F (mixture of isomers) [Example 6],11
5,"Cc1ccc(Cn2cc3c(C)cc4oc(C(=O)NC[C@@H]5COCCO5)c(C(F)(F)F)c4c3n2)nc1 [Example 36, N-{[(2R)-1,4-dioxan-2-yl]methyl}-4-methyl-2-[(5-methylpyridin-2-yl)methyl]-8-(trifluoromethyl)-2H-furo[2,3-g]indazole-7-carboxamide]",5
6,"O=C(NC[C@@H]1CCCO1)c1cc2c(cc(Br)c3cn(Cc4ccccn4)nc32)o1 [Example 43, 4-bromo-2-(pyridin-2-ylmethyl)-N-[(2S)-tetrahydrofuran-2-ylmethyl]-2H-furo[2,3-g]indazole-7-carboxamide]",4930
7,Cc1cc2oc(C(=O)NC[C@@H]3CCCO3)c(C(F)(F)F)c2c2nn(Cc3ccncc3)cc12 [Example 31],13
8,N#Cc1ccc(CNC(=O)c2oc3ccc4cn(C[C@H]5COCCO5)nc4c3c2C(F)(F)F)nc1 [Example 22],13
9,"Cc1cnc(CNC(=O)c2oc3ccc4cn(C[C@H]5COCCO5)nc4c3c2C(F)(F)F)cn1 [Example 20, 2-{[(2S)-1,4-dioxan-2-yl]methyl}-N-[(5-methylpyrazin-2-yl)methyl]-8-(trifluoromethyl)-2H-furo[2,3-g]indazole-7-carboxamide]",18
10,"Cc1c(C(=O)NC[C@@H]2CCCO2)oc2ccc3cn(Cc4ccccn4)nc3c12 [Example 40, 8-methyl-2-(pyridin-2-ylmethyl)-N-[(2S)-tetrahydrofuran-2-ylmethyl]-2H-furo[2,3-g]indazole-7-carboxamide]",16
11,"O=C(NCCc1ccccn1)c1oc2ccc3cn(C[C@H]4COCCO4)nc3c2c1C(F)(F)F [Example 27, 2-{[(2S)-1,4-dioxan-2-yl]methyl}-N-[2-(pyridin-2-yl)ethyl]-8-(trifluoromethyl)-2H-furo[2,3-g]indazole-7-carboxamide]",630
12,O=C(NCc1ncccn1)c1oc2ccc3cn(C[C@H]4COCCO4)nc3c2c1C(F)(F)F [Example 14],48
13,O=C(NC[C@@H]1CCCO1)c1oc2ccc3cn(C[C@H]4COCCO4)nc3c2c1C(F)(F)F [Example 2],7
14,Cc1cc2oc(C(=O)NCc3ccn(C)n3)c(C(F)(F)F)c2c2nn(Cc3ccccn3)cc12 [Example 34],150
15,Cc1cc2oc(C(=O)NC[C@@H]3CCCO3)c(C(F)(F)F)c2c2nn(C[C@H]3COCCO3)cc12 [Example 38],21
16,O=C(NCc1cccnn1)c1oc2ccc3cn(C[C@H]4COCCO4)nc3c2c1C(F)(F)F [Example 17],460
17,O=C(NCc1ccncn1)c1oc2ccc3cn(C[C@H]4COCCO4)nc3c2c1C(F)(F)F [Example 16],120
18,Cc1cc2oc(C(=O)NCc3ncco3)c(C(F)(F)F)c2c2nn(Cc3ccccn3)cc12 [Example 33],100

row,SMILES,IC50 [nM]
1,N#Cc1ccnc(CNC(=O)c2oc3ccc4cn(C[C@H]5COCCO5)nc4c3c2C(F)(F)F)c1 [Example 23],250
2,"O=C(NC[C@@H]1CCCO1)c1oc2ccc3cn(Cc4ccccn4)nc3c2c1CO [Example 41, 8-(hydroxymethyl)-2-(pyridin-2-ylmethyl)-N-[(2S)-tetrahydrofuran-2-ylmethyl]-2H-furo[2,3-g]indazole-7-carboxamide]",530
3,Cc1ccc(Cn2cc3ccc4oc(C(=O)NC[C@@H]5CCCO5)c(C(F)(F)F)c4c3n2)cn1 [Example 4],9
4,O=C(NCCC1CC1)c1oc2ccc3cn(C[C@H]4COCCO4)nc3c2c1C(F)(F)F [Example 8],1040
5,O=C(NCc1cocn1)c1oc2ccc3cn(C[C@H]4COCCO4)nc3c2c1C(F)(F)F [Example 10],100
6,CS(=O)(=O)CCNC(=O)c1oc2ccc3cn(C[C@H]4COCCO4)nc3c2c1C(F)(F)F [Example 9],3490
7,"CCc1cc2oc(C(=O)NC[C@@H]3COCCO3)c(C)c2c2nn(C[C@H]3COCCO3)cc12 [Example 44, N-{[(2R)-1,4-dioxan-2-yl]methyl}-2-{[(2S)-1,4-dioxan-2-yl]methyl}-4-ethyl-8-methyl-2H-furo[2,3-g]indazole-7-carboxamide]",54
8,Cc1cc2oc(C(=O)NC[C@@H]3COCCO3)c(C(F)(F)F)c2c2nn(Cc3ccccn3)cc12 [Example 30],26
9,O=C(NCc1cncs1)c1oc2ccc3cn(C[C@H]4COCCO4)nc3c2c1C(F)(F)F [Example 13],490
10,"Cc1ccc(Cn2cc3c(C)cc4oc(C(=O)NCc5ncco5)c(C(F)(F)F)c4c3n2)nc1 [Example 37, 4-methyl-2-[(5-methylpyridin-2-yl)methyl]-N-[(1,3-oxazol-2-yl)methyl]-8-(trifluoromethyl)-2H-furo[2,3-g]indazole-7-carboxamide]",18
11,"O=C(NC[C@@H]1CCCO1)c1cc2c(ccc3cn(Cc4ccccn4)nc32)o1 [Example 42, 2-(pyridin-2-ylmethyl)-N-[(2S)-tetrahydrofuran-2-ylmethyl]-2H-furo[2,3-g]indazole-7-carboxamide]",880
12,O=C(NCc1nccs1)c1oc2ccc3cn(C[C@H]4COCCO4)nc3c2c1C(F)(F)F [Example 12],18
13,CC1(C)COC(CNC(=O)c2oc3ccc4cn(C[C@H]5COCCO5)nc4c3c2C(F)(F)F)C1 (mixture of isomers) [Example 5],9
14,COc1cccc(CNC(=O)c2oc3ccc4cn(C[C@H]5COCCO5)nc4c3c2C(F)(F)F)n1 [Example 24],400
15,"O=C(NCCc1cccnc1)c1oc2ccc3cn(C[C@H]4COCCO4)nc3c2c1C(F)(F)F [Example 28, 2-{[(2S)-1,4-dioxan-2-yl]methyl}-N-[2-(pyridin-3-yl)ethyl]-8-(trifluoromethyl)-2H-furo[2,3-g]indazole-7-carboxamide]",3580
16,"O=C(NC[C@@H]1COCCO1)c1oc2ccc3cn(C[C@H]4COCCO4)nc3c2c1C(F)(F)F [Example 1, N-{[(2R)-1,4-dioxan-2-yl]methyl}-2-{[(2S)-1,4-dioxan-2-yl]methyl}-8-(trifluoromethyl)-2H-furo[2,3-g]indazole-7-carboxamide]",16
17,"Cc1ccc(CNC(=O)c2oc3ccc4cn(C[C@H]5COCCO5)nc4c3c2C(F)(F)F)nc1 [Example 18, 2-{[(2S)-1,4-dioxan-2-yl]methyl}-N-[(5-methylpyridin-2-yl)methyl]-8-(trifluoromethyl)-2H-furo[2,3-g]indazole-7-carboxamide]",7
18,Cc1cc2oc(C(=O)NC[C@@H]3CCCO3)c(C(F)(F)F)c2c2nn(Cc3ccccn3)cc12 [Example 29],16
